Reference: patent US8603531B2, “Nanometer-sized prodrugs of NSAIDs” (Cedars-Sinai Medical Center, priority 2008, dated 2013)

Assays:
[1] = Hydrodynamic size and size distribution of nanoprodrugs by dynamic light scattering; assay type: physicochemical
Description: Briefly, 25 mg of the compounds were dissolved in acetone (5 ml) containing polysorbate 80 (0.1% w/v). […] Following 15 min of magnetic stirring, the acetone was removed under reduced pressure at room temperature.
The hydrodynamic size measurement and size distribution of the nanoprodrugs were performed by the dynamic light scattering (DLS) using a Coulter N4-Plus Submicron Particle Sizer (Coulter Corporation, Miami, Fla., USA). The nanoprodrugs were diluted in deionized water and the analysis was performed at a scattering angle of 90° and at a temperature of 25° C. Three separate preparations were analyzed for each nanoprodrug. For each preparation mean diameter and mean polydispersity index (P.I.) of three determinations were calculated. The mean diameter±standard deviation (S.D.) and P.I.±S.D. were calculated from the three mean diameters and mean P.I.'s of the three separate preparations.

esterase [2] = assay: Effect of nanoprodrug oxidation on the rate of enzymatic hydrolysis; assay type: in vitro ADME, porcine; conditions: determined immediately after addition of esterase 2 U/ml; HOCl 500 μM 2 min
Description: In order to evaluate the effect of prodrug oxidation on the rate of enzymatic hydrolysis, the initial hydrolysis rate of NSAIDs from the oxidized and non-oxidized nanoprodrugs was determined. The nanoprodrugs prepared from ALA-TEG-Ibu, ALA-TEG-Npx and ALA-TEG-Ind (250 μM in PBS, pH 7.4) were incubated in the absence and presence of HOCl (500 μM) for 2 min. Esterase (2 U/ml) was added and mixed by pipetting up and down. The reaction mixture was centrifuged immediately after addition of esterase and the supernatant was quickly transferred into a new tube and incubated further to complete hydrolysis. The hydrolyzed NSAIDs in the supernatant were quantified using RP-HPLC as described above. Error bar represents±S.D. calculated from triplicate determinations.
To evaluate the sequence of hydrolysis after oxidation, the nanoprodrugs were incubated in presence of HOCl (500 μM) for 2 min and esterase (2 U/ml) was added. The reaction mixture was mixed by pipetting up and down and immediately centrifuged for 10 min at 20,000×g. The supernatant was analyzed using RP-HPLC as described above.

esterase [3] = assay: Recovery of NSAIDs from oxidized nanoprodrugs (esterase hydrolysis); assay type: in vitro ADME, porcine; conditions: 250 μM, HOCl 500 μM 2 min, esterase 2 U/ml, overnight 37° C.
Description: The recovery yield of NSAIDs was determined for oxidized and non-oxidized nanoprodrugs. The nanoprodrugs prepared from ALA-TEG-Ibu, ALA-TEG-Npx and ALA-TEG-Ind (250 μM in PBS, pH 7.4) were incubated in the presence and absence of HOCl (500 μM) for 2 min. Esterase (2 U/ml) was added and mixed by pipetting up and down. In order to determine the total amount of available NSAIDs from the oxidized and non-oxidized nanoprodrugs, the hydrolysis was carried out overnight at 37° C. The reaction mixture was centrifuged for 10 min at 20,000×g and the hydrolyzed NSAIDs in the supernatant were quantified using RP-HPLC. Error bar represents±S.D. calculated from triplicate determinations.

Esterase (porcine liver) = assay: Enzymatic destabilization / hydrolysis of nanoprodrugs by esterase; assay type: in vitro ADME; conditions: esterase 5 U/ml; for Parent drugs hydrolyzed / released from the nanoprodrugs after 1 h incubation / Concentration of the released drugs / Drug release: nanoprodrug 500 μM; for Concentration of the released drugs / Drug release: 60 min, room temperature, PBS pH 7.4; for Concentrations of the released drugs after 12 h incubation: compared with ALA-TEG-Npx and ALA-TEG-Ibu after 1 h
Description: Esterase (porcine liver, Sigma, code E3019) was added to the final concentration of 5 U/ml. For the nanoprodrugs from the three bifunctional prodrugs, ALA-TEG-Ibu, ALA-TEG-Npx and ALA-TEG-Ind, the reduction in turbidity was monitored using ultraviolet/visible spectrometer (Bio-Rad SmartSpec™ 3000) for 60 min at room temperature with a wavelength λ=500 nm and 1 min acquisition interval. For the nanoprodrugs from the three dimeric prodrugs, Ibu2TEG, Npx2TEG and Ind2TEG, the samples were taken during the incubation for 12 h at room temperature with appropriate time interval and the reduction in turbidity was measured.
To determine the amount of enzymatically hydrolyzed NSAIDs, samples were centrifuged for 10 min at 20,000×g and the supernatants were analyzed by RP-HPLC using a C18 reversed phase column (Section 2.5).
The concentration of the NSAIDs was determined using calibration curves generated in the concentration range of 25-500 μM. Error bar represents±S.D. calculated from triplicate determinations. The stability of the nanoprodrugs under the experimental conditions in the absence of esterase was evaluated as follows. The purified nanoprodrugs were suspended in PBS (pH 7.4) and incubated for 12 h at room temperature. The amount of the intact prodrugs was determined using RP-HPLC as described above.

[4] = Oxidative destabilization of nanoprodrugs (turbidity at 500 nm after HOCl); conditions: nanoprodrug 250 μM, HOCl 25-1000 μM
Description: The nanoprodrugs were purified by centrifuging three times at 20,000×g for 10 min at 25° C. and resuspending each time in the same volume of deionized water. The purified nanoprodrugs were resuspended in phosphate buffered saline (PBS, pH 7.4) to give the final concentration of 250 μM NSAID derivatives. The concentration of HOCl in the diluted commercial sodium hypochlorite solution was determined spectrophotometrically (ε292=350 M^−1 cm^−1) (Morris, 1966). HOCl was added to the suspension of nanoprodrugs to give the final concentration of 25-1000 μM and the reduction in turbidity was measured immediately using ultraviolet/visible spectrometer (Bio-Rad SmartSpec™ 3000, Hercules, Calif., USA) at room temperature with a wavelength λ=500 nm.

[5] = system: U87-MG human glioma cell line; conditions: nanoprodrug 10 to 100 μM, 3 days
Description: The cells were grown and maintained in Minimum Essential Medium (MEM) (Invitrogen) containing antibiotics 100 U/mL penicillin (Invitrogen) and 100 μg/mL streptomycin (Invitrogen), and supplemented with 10% fetal bovine serum (FBS) (Invitrogen). Cells were kept at 37° C. in a humidified atmosphere including 5% CO2.
Nanoprodrugs were prepared from the monomeric derivative Ibu2TEG (25 mg) as described in Example 6 and dialyzed in phosphate buffered saline (PBS) over night. The human glioma cells (U87-MG) were seeded in a 25 cm^2 flask at 2.5×10^5 cells/5 mL and allowed to grow for 24 h. The medium was changed and the cells were treated with nanoprodrugs at final concentration ranging from 10 to 100 μM for the monomeric derivative Ibu2TEG. After a 3-day treatment, the medium was remove, cells were washed with PBS and 1 mL of 0.25% trypsin/EDTA (Gibco) was added to detach the cells. […] Control culture was treated with PBS.

[6] = system: human glioma cells (U87-MG); assay: WST-1 cell viability assay, glioma cells; assay type: cell-based; conditions: free ibuprofen up to 600 μM, 72 h
Description: Growth inhibition was evaluated by the WST-1 (water-soluble tetrazolium salt) colorimetric assay (Boehringer Mannheim) according to the manufacturer's instructions. […] Cells were incubated at 37° C. for 1-4 h, and the absorbance was read by an ELISA plate reader at 450 nm. The cell viability was calculated as follows: Cell viability (%)=(Abss/Absc)×100, where Abss is the absorbance of cells treated with drugs and Absc is the absorbance of control cells incubated with cell culture medium only (See FIG. 9.).

[7] = system: human glioma cells (U87-MG); assay: Cell death by propidium iodide uptake; assay type: cell-based; conditions: 200 μM of ibuprofen in DMSO, 72 h
Description: The human glioma cells (U87-MG) were seeded at 1×10^5 cells per well in 6-well plates, and allowed to grow for 24 h. The medium was changed and the cells were treated with 50 or 100 μM of nanoprodrug of Ibu2TEG or 200 μM of ibuprofen dissolved in DMSO for 72 h. Control cultures were treated with DMSO or cell culture medium only. After the end of treatment, glioma cells were incubated with 5 μM of propidium iodide (Sigma) for 1 h. Propidium iodide fluorescence was excited at 515-560 nm using an inverted microscope fitted with a standard rhodamine filter.

[8] = another NSAID nanosphere, Table 2C
[9] = hydrodynamic size of additional nanospheres, Table 2B
[10] = polydispersity index of additional nanospheres, Table 2B
[11] = nanoprodrugs of the derivative, Table 2A, n = 3, ±S.D., DLS 25° C.
[12] = polydispersity index of nanoprodrugs, Table 2A, n = 3, ±S.D.

SMILES	Size (nm) [1, 9]	P.I. [1, 10]	Size (nm) [1, 11]	P.I. [1, 12]	further results
O=C(OCCOCCOCCOCCOC(=O)c1ccccc1Nc1cccc(C(F)(F)F)c1)c1ccccc1Nc1cccc(C(F)(F)F)c1 [(FA)2TEG, Tetraethylene glycol(flufenamic acid)2]					P.I. [1, 8]: 0.11; Size (nm) [1, 8]: 118 ± 32 nm
COc1ccc2c(c1)c(CC(=O)OCCOCCOC(=O)CCCCC1CCSS1)c(C)n2C(=O)c1ccc(Cl)cc1 (stereo not drawn) [ALA-DEG-IND, (α-Lipoic acid)-diethylene glycol(indomethacin)]	187 ± 54 nm	0.13			
CC(C)Cc1ccc(C(C)C(=O)OCCOCCOC(=O)CCCCC2CCSS2)cc1 (stereo not drawn) [ALA-DEG-Ibu, (α-Lipoic acid)-diethylene glycol(ibuprofen)]	210 ± 53 nm	0.09			
COc1ccc2cc([C@H](C)C(=O)OCCOCCOC(=O)CCCCC3CCSS3)ccc2c1 (stereo partly drawn) [ALA-DEG-Npx, (α-Lipoic acid)-diethylene glycol(naproxen)]	274 ± 56 nm	0.05			
O=C(CCCCC1CCSS1)OCCOCCOCCOCCOC(=O)c1ccccc1Nc1cccc(C(F)(F)F)c1 (stereo not drawn) [ALA-TEG-FA, (α-Lipoic acid)-tetraethylene glycol(flufenamic acid)]	149 ± 36 nm	0.08			
CC(C)Cc1ccc(C(C)C(=O)OCCOCCOCCOCCOC(=O)CCCCC2CCSS2)cc1 (stereo not drawn) [ALA-TEG-Ibu]			251 ± 13 nm	0.10 ± 0.03	Increase of the amount of hydrolyzed drugs from oxidized vs non-oxidized nanoprodrugs (esterase [2]): approximately two; Released parent drugs from the oxidized nanoprodrugs in comparison with non-oxidized controls (esterase [3]): 80%; Parent drugs hydrolyzed / released from the nanoprodrugs after 1 h incubation (Esterase (porcine liver)): approximately 90%; Concentration of the released drugs (Esterase (porcine liver)): 417 µM; Drug release (Esterase (porcine liver)): 83%
COc1ccc2c(c1)c(CC(=O)OCCOCCOCCOCCOC(=O)CCCCC1CCSS1)c(C)n2C(=O)c1ccc(Cl)cc1 (stereo not drawn) [ALA-TEG-Ind]			253 ± 25 nm	0.09 ± 0.05	Induction phase of oxidative destabilization [4]: longest induction phase
COc1ccc2cc([C@H](C)C(=O)OCCOCCOCCOCCOC(=O)CCCCC3CCSS3)ccc2c1 (stereo partly drawn) [ALA-TEG-Npx]			298 ± 6 nm	0.05 ± 0.01	Increase of the amount of hydrolyzed drugs from oxidized vs non-oxidized nanoprodrugs (esterase [2]): three; Induction phase of oxidative destabilization [4]: less apparent; Released parent drugs from the oxidized nanoprodrugs in comparison with non-oxidized controls (esterase [3]): 87%; Parent drugs hydrolyzed / released from the nanoprodrugs after 1 h incubation (Esterase (porcine liver)): approximately 90%; Concentration of the released drugs (Esterase (porcine liver)): 454 µM; Drug release (Esterase (porcine liver)): 91%
CC(C)Cc1ccc(C(C)C(=O)OCCOCCOCCOCCOC(=O)C(C)c2ccc(CC(C)C)cc2)cc1 (stereo not drawn) [Ibu2TEG, Tetraethylene glycol(ibuprofen)2]			186 ± 11 nm	0.13 ± 0.02	Cell number compared to the control culture [5]: significant decrease in cell number; Concentrations of the released drugs after 12 h incubation (Esterase (porcine liver)): comparable
COc1ccc2c(c1)c(CC(=O)OCCOCCOCCOCCOC(=O)Cc1c(C)n(C(=O)c3ccc(Cl)cc3)c3ccc(OC)cc13)c(C)n2C(=O)c1ccc(Cl)cc1 [Ind2TEG]			159 ± 10 nm	0.06 ± 0.03	
COc1ccc2cc(C(C)C(=O)OCCOCCOCCOCCOC(=O)C(C)c3ccc4cc(OC)ccc4c3)ccc2c1 (stereo not drawn) [Npx2TEG]			259 ± 9 nm	0.06 ± 0.02	Concentrations of the released drugs after 12 h incubation (Esterase (porcine liver)): comparable
CC(C)Cc1ccc(C(C)C(=O)O)cc1 (stereo not drawn) [ibuprofen]					Effect on cell viability [6]: did not show any significant effect; Propidium iodide incorporation (cell death) [7]: no significant propidium iodide incorporation
